Data: patent publication US12070454B1, “Anesthetic nerve block and method” (PFOF LLC, priority 2022, dated 2024)
Values joined by “and” are separate entries in the source; they are usually repeats but may differ in a detail not shown here. Identical values can stand only once.

Assays:
peripheral nerve [1] = conditions: cited from earlier work; for extension of standard peripheral nerve block: dexmedetomidine and clonidine, along with corticosteroids; for duration of peripheral nerve block, local anesthetic alone: no adjuvant or steroid; for life of peripheral nerve blocks and tissue infiltrates with adjuvants: with epinephrine, corticosteroids, α2-agonists
target nerve = test: ALALA-carbonate nerve block by injection of Solution 1 and Solution 2; format: in vivo, human; conditions: ALALA-carbonate precipitate in and around the nerve
Excerpt: As shown in FIGS. 17-23, the establishment of a 5-day peripheral nerve block involves the injection of two separate and sequential solutions to form the ALALA-compound precipitate and crystals in vivo around the nerves for specific nerve blocks. These solutions form the ALALA-compound precipitates and crystals. As the two solutions must be kept separate until injection over the specific nerve is accomplished, the solutions may then react to form the ALALA-compound precipitate and crystals in vivo. This separation of solutions by two different means: • 1. The sequential injection of two separate solutions through a single needle (FIGS. 17-19 and 22). • 2. The simultaneous injection of both solutions through a bifurcated needle where mixing occurs only at the needle tip(s) opposite the target nerve (FIGS. 20 and 21). These alkaline solutions are: • 1. […] Epinephrine 86 is present at a concentration of ˜3 mcg/ml, primarily as a standard vascular marker producing mild tachycardia if leakage into the vascular system occurs. When Solution 1 is given, a pulse-oximeter or EKG rhythm strip must be run to confirm no tachycardia for 2 minutes to ensure Solution 1 has no leakage into the vascular system with a resulting tachycardia greater than 15% above baseline pulse. […] Solution 2 is injected only if no increase impulse rate greater than 15% above baseline is determined within 2 minutes. • 3. […]

peripheral nerve [2] = format: in vivo, human
Excerpt: The mass of ALALA drug precipitated around the peripheral nerve or infiltrated tissue causes the intraneural metabolic mechanism transforming unionized to ionized ALALA drug to get overwhelmed. Thus, the normal transformation to ionized ALALA drug gets delayed to the point it takes 5 days or longer for all the ALALA drug to be metabolized and the block to wear off.

[3] = cited from earlier work; for pH at which precipitates began to form: combined with NaOH
[4] = format: physicochemical; conditions: for drug mass remaining in solution: 0.375 %; for drug mass precipitated: equal volumes of 8.4% NaHCO3 and 0.75% anesthetic solution, in vitro
Excerpt: Because of their elevated pKa's, ALALA drugs will form a crystalline precipitate 82 in an alkaline environment, both intra-axonally and extra-axonally (at the nodes of Ranvier 20 in A-delta fibers and generally around the axon in C-fibers). […] It is anticipated levo-bupivacaine will react similarly to levo-ropivacaine at 96.5% conversion to precipitate and crystallization when this drug becomes available.
NaHCO3 in Solution 1, when mixed with bupivacaine, levo-bupivacaine, or ropivacaine of Solution 2, will cause these drugs to immediately precipitate into crystals in this alkaline solution.
As discovered in our laboratory, 8.4% NaHCO3, when combined in vitro with bupivacaine or ropivacaine, results in precipitates of 93.5% and 96.5% respectively of the parent ALALA drug. […] Controlling the pH of the final combination of all these drugs and bases more efficiently controls the percentage of ALALA converted to precipitate and crystals and thereby the duration of the resulting nerve block.

axolemma or node = test system: axolemma or node
Procedure: It is this small amount of bupivacaine within the axolemma/node that results, primarily, in continuing neural blockade for periods of 120 hours or more.

[5] = Test-tube combination of levobupivacaine with NaHCO3 versus molar prediction; format: physicochemical
Excerpt: In a test-tube with one mole of ropivacaine or levobupivacaine reacting with one mole of NaHCO3, a much higher percentage of ropivacaine or levobupivacaine is converted to the ALALA-bicarbonate precipitate than with racemic bupivacaine. Testing with levobupivacaine with NaHCO3 it was established that, levobupivacaine combines with NaHCO3 much more readily than molar predictions indicated. Where molar quantities predicted a 57.7% combination, an 83.9% combination occurred. Where another molar quantity predicted an 86.5% combination, a 94.0% combining of levobupivacaine and NaHCO3 occurred. Thus levo-enantiomers of the ALALA drugs are the preferred forms to be used to create these ALALA-bicarbonate precipitates.

[6] = Precipitation of local anesthetics with increasing pH (NaOH) or corticosteroids; format: physicochemical; conditions: alkaline solution
[7] = humans; cited from earlier work
[8] = cited from earlier work

drug mass remaining in solution [4] [%]	drug mass precipitated [4]	Compound	extension of standard peripheral nerve block (peripheral nerve [1]) [%]	duration of peripheral nerve block, local anesthetic alone (peripheral nerve [1])	life of peripheral nerve blocks and tissue infiltrates with adjuvants (peripheral nerve [1]) [h]	pH at which precipitates began to form [3] [pH]	other results
7.47	93.53% and 93.5% and 92.53%	CCCCN1CCCCC1C(=O)Nc1c(C)cccc1C (racemic) [bupivacaine, (RS)-1-butyl-N-(2,6-dimethylphenyl)piperidine-2-carboxamide]	~50	~12 h and 16 h	~24	7.7	duration of neural blockade / analgesia (target nerve): ≥ 120 h; duration of block achieved (peripheral nerve [2]; 225 mg bupivacaine dose, single volunteer): 5 days; depot as percentage of the dose injected (peripheral nerve [2]; human, in vivo): 7.163%; fraction penetrating the axolemma or node before precipitation (axolemma or node): approximately 11.9%
		CC1(C)O[C@@H]2C[C@H]3[C@@H]4CCC5=CC(=O)C=C[C@]5(C)[C@@]4(F)[C@@H](O)C[C@]3(C)[C@]2(C(=O)CO)O1 [Triamcinolone]					precipitate effect when combined with the ALALA drugs ([3]; Hwang et al.): no precipitate-effects
		CCCCN1CCCC[C@H]1C(=O)Nc1c(C)cccc1C [levobupivacaine, (S)-1-butyl-N-(2,6-dimethylphenyl)-2-piperidinecarboxamide]		~12 h	~24		combining of levobupivacaine and NaHCO3 that occurred ([5]; where another molar quantity predicted an 86.5% combination): 94.0%; combination of levobupivacaine and NaHCO3 that occurred ([5]; where molar quantities predicted a 57.7% combination): 83.9%
		CCN(CC)CC(=O)Nc1c(C)cccc1C [lidocaine]					pH at which lidocaine precipitates [6]: ~11.5 pH
3.50	96.5%	CCCN1CCCC[C@H]1C(=O)Nc1c(C)cccc1C [ropivacaine, (S)-1-propyl-N-(2,6-dimethylphenyl)piperidine-2-carboxamide]	~50	~12 h and 16 h	~24	6.9	
		CCCCNc1ccc(C(=O)OCCN(C)C)cc1 [tetracaine]					dose at which anaphylactic reactions are known [7]: ≤ 10 mg; pKa relative to bupivacaine [8]: higher than bupivacaine
